The source of these data is US6096749A, “Pyrrolopyrimidine derivatives having pharmacological activity” (Novartis Corporation, priority 1994, dated 2000).

For one experiment, the target named is T1, EGF-R ICD (Homo sapiens, UniProt P00533).
T1 construct: recombinant intracellular domains of the EGF-receptor (EGF-R ICD)
Kind of experiment: Inhibitory action on EGF-R ICD (intracellular domains of the EGF receptor) tyrosine protein kinase, Test A. It is filed as biochemical. The conditions noted are these: concentration at which inhibition is half the maximum inhibition. From the text:
Test A) Inhibitory action on EGF-R ICD (ICD=intracellular domains): The test system is described above. The result is given as IC50 in μM (concentration of active ingredient at which inhibition is half the maximum inhibition).
The test system is described above. The result is given as IC50 in μM (concentration of active ingredient at which inhibition is half the maximum inhibition).

In experiment [1] the test system is BALB/c mouse keratinocyte cell line (MK cells). Nature of the experiment: Inhibitory action on the growth of MK cells (BALB/MK), Test B. Type of experiment: cell-based. The conditions noted are these: 72 h, three days incubation, methylene blue staining, Examples 16 to 22. The protocol:
The test compounds (dissolved in DMSO) are added in a series of concentrations (dilution series), so that the final concentration of DMSO is not grater than 1% (v/v). […] The growth of the MK cells is measured by means of methylene blue staining: after incubation, the cells are fixed with glutaraldehyde, washed with water and stained with 0.05% methylene blue. […] IC50 values are calculated by means of a computer-assisted system using the formula:
IC50 =(ODtest -ODstart)/(ODcontrol
Test B) Inhibitory action on the growth of MK cells: The test system is described in detail above. The result is given as IC50 in μM (concentration of active ingredient at which inhibition is half the maximum inhibition).

[2] abbreviates: Example 32, table 3, read-out: IC50 (inhibitory action on the intracellular domains of EGF-R (ICD)).
The mark [3] stands for this setting: Examples 16 to 22, read-out: IC50 (Test A: inhibitory action on EGF-R ICD).

As usually defined, the pIC50 is the IC50 on a negative log10 scale, so that one unit is a factor of ten.

The structures appear in SMILES notation. pIC50: −log10 of the molar value. Values joined by “and” are separate entries in the source; they are usually repeats but may differ in a detail not shown here. Equal entries are not always repeated. Where two headings read alike, the source gives them in different places.

T1 sequence (P00533 669-1210 limits assumed): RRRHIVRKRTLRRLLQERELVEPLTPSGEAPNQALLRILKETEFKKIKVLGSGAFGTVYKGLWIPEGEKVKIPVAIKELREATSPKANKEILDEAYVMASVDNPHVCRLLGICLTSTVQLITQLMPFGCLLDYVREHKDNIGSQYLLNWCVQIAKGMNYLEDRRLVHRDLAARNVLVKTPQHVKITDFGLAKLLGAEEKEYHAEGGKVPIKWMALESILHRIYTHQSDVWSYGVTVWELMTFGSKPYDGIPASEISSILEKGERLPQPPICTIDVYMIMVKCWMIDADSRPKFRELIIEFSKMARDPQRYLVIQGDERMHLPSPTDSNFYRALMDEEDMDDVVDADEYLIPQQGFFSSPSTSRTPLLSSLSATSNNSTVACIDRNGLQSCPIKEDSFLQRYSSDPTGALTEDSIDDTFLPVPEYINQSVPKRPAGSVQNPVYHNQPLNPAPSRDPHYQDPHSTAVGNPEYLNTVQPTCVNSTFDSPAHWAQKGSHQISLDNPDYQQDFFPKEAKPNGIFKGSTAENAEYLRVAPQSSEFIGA

As for `COc1cccc(-c2cc3c(Nc4cccc(Cl)c4)ncnc3[nH]2)c1` [Example 30, 4-(m-Chloroanilino)-6-(3-methoxyphenyl)-7H-pyrrolo[2,3-d]pyrimidine], the pIC50 on EGF-R ICD (setting [2]) was 5.75.
Take `Cc1[nH]c2ncnc(Nc3ccc(F)cc3)c2c1C` [Example 20, 4-(p-Fluoroanilino)-5,6-dimethyl-7H-pyrrolo[2,3-d]pyrimidine]: the negative logarithm of the IC50 (pIC50) on EGF-R ICD (setting [3]) was 6.25; in experiment [1] it was 4.88.
As to `Cc1ccc(Nc2ncnc3[nH]c(C)c(C)c23)cc1` [Example 17, 4-(p-Methylanilino)-5,6-dimethyl-7H-pyrrolo[2,3-d]pyrimidine], the pIC50 at EGF-R ICD (setting [3]) is 5.72; in experiment [1], 4.61.
As to `Clc1cccc(Nc2ncnc3[nH]c(-c4ccccc4)cc23)c1` [Example 28, 4-(m-Chloroanilino)-6-(phenyl)-7H-pyrrolo[2,3-d]pyrimidine], at EGF-R ICD (setting [2]), the negative-log IC50 (pIC50) is 7.89.
In the case of `COc1ccc(-c2cc3c(Nc4cccc(Cl)c4)ncnc3[nH]2)cc1` [Example 26, 4(m-Chloroanilino)-6-(4-methoxyphenyl)-7H-pyrrolo[2,3-d]pyrimidine], the pIC50 on EGF-R ICD (setting [2]) was 7.82.
Regarding `Cc1[nH]c2ncnc(Nc3cccc(Br)c3)c2c1C` [Example 2, 4-(m-Bromoanilino)-5,6-dimethyl-7H-pyrrolo[2,3-d]pyrimidine], the negative-log IC50 (pIC50) on EGF-R ICD (setting [2]) is 7.60.
Turning to `Cc1cccc(Nc2ncnc3[nH]c4c(c23)CCCC4)c1` [Example 10, 4-(m-Methylanilino)-5,6-tetramethylene-7H-pyrrolo[2,3-d]pyrimidine], the negative-log IC50 (pIC50) on EGF-R ICD (setting [2]) was 6.09.
For the compound `Cc1ccc(Nc2ncnc3[nH]c4c(c23)CCCC4)cc1` [Example 22, 4-(4-Methylanilino)-5,6-tetramethylene-7H-pyrrolo[2,3-d]pyrimidine], the pIC50 on EGF-R ICD (setting [3]) is 6.96; in experiment [1], 4.86.
With `Cc1[nH]c2ncnc(Nc3cc(Cl)cc(Cl)c3)c2c1C` [Example 4, 4-(m,m-Dichloroanilino)-5,6-dimethyl-7H-pyrrolo[2,3-d]pyrimidine], at EGF-R ICD (setting [2]), the pIC50 is 6.77.
Consider `Clc1ccc(Nc2ncnc3[nH]c4c(c23)CCCC4)cc1Cl` [Example 15, 4-(m,p-Dichloroanilino)-5,6-tetramethylene-7H-pyrrolo[2,3-d]pyrimidine], for which the pIC50 on EGF-R ICD (setting [2]) was 6.82.
As to `Cc1[nH]c2ncnc(Nc3ccccc3F)c2c1C` [Example 19, 4-(o-Fluoroanilino)-5,6-dimethyl-7H-pyrrolo[2,3-d]pyrimidine], the pIC50 at EGF-R ICD (setting [3]) was 5.80; in experiment [1], 4.31.
For `Fc1cccc(Nc2ncnc3[nH]c4c(c23)CCCC4)c1` [Example 9, 4-(m-Fluoroanilino)-5,6-tetramethylene-7H-pyrrolo[2,3-d]pyrimidine], at EGF-R ICD (setting [2]), the pIC50 was 6.70.
Take `COc1ccccc1-c1cc2c(Nc3cccc(Cl)c3)ncnc2[nH]1` [Example 31, 4-(m-Chloroanilino)-6-(2-methoxyphenyl)-7H-pyrrolo[2,3-d]pyrimidine]: the pIC50 at EGF-R ICD (setting [2]) is 7.72.
As to `FC(F)(F)c1cccc(Nc2ncnc3[nH]c4c(c23)CCCC4)c1` [Example 14, 4-(m-Trifluoromethylanilino)-5,6-tetramethylene-7H-pyrrolo[2,3-d]-pyrimidine], on EGF-R ICD (setting [2]), the pIC50 was 6.44.
On to `COc1ccc(OC)c(-c2cc3c(Nc4cccc(Cl)c4)ncnc3[nH]2)c1` [Example 27, 4-(m-Chloroanilino)-6-(2,5-dimethoxyphenyl)-7H-pyrrolo[2,3-d]-pyrimidine], for which the pIC50 at EGF-R ICD (setting [2]) is 7.48.
Same read-out and setting: then `COc1ccc(-c2[nH]c3ncnc(Nc4cccc(Cl)c4)c3c2C)cc1` [Example 29, 4-(m-Chloroanilino)-5-methyl-6-(4-methoxyphenyl)-7H-pyrrolo[2,3-d]-pyrimidine], with 6.37.
In the case of `Cc1[nH]c2ncnc(Nc3ccc(Cl)c(Cl)c3)c2c1C` [Example 18, 4-(m,p-Dichloroanilino)-5,6-dimethyl-7H-pyrrolo[2,3.d]pyrimidine], the pIC50 on EGF-R ICD (setting [3]) was 7.15; in experiment [1], 4.46.
Take `Brc1cccc(Nc2ncnc3[nH]c(-c4ccccc4)c(-c4ccccc4)c23)c1` [Example 13, 4-(m-Bromoanilino)-5,6-diphenyl-7H-pyrrolo[2,3-d]pyrimidine]: the pIC50 on EGF-R ICD (setting [2]) is 7.02 and 7.48.
As to `Brc1cccc(Nc2ncnc3[nH]c4c(c23)CCCC4)c1` [Example 8, 4-(m-Bromoanilino)-5,6-tetramethylene-7H-pyrrolo[2,3-d]pyrimidine], the pIC50 on EGF-R ICD (setting [2]) is 7.34.
On the same count and under the same terms, for `Cc1[nH]c2ncnc(Nc3cccc(F)c3)c2c1C` [Example 3, 4-(m-Fluoroanilino)-5,6-dimethyl-7H-pyrrolo[2,3-d]pyrimidine] the value was 6.26; for `COc1cccc(Nc2ncnc3[nH]c4c(c23)CCCC4)c1` [Example 11, 4-(m-Methoxyanilino)-5,6-tetramethylene-7H-pyrrolo[2,3-d]pyrimidine], 6.46.
As for `Cc1cccc(Nc2ncnc3[nH]c(C)c(C)c23)c1` [Example 5, 4-(m-Methylanilino)-5,6-dimethyl-7H-pyrrolo[2,3-d]pyrimidine], at EGF-R ICD (setting [2]), the pIC50 was 6.24.
